Measured values as given in patent publication US20230257715A1, “COMPOSITIONS AND METHODS FOR REGULATING ENTEROENDOCRINE CELL DIFFERENTIATION AND USES THEREOF” (The Children's Medical Center Corporation, priority 2020, published 2023).
“Also recorded” adds a separate entry of the source.

Key:
Format in all cases: cell-based
human duodenal enteroids [1] = experiment: Immunofluorescence staining of hormones (SST, 5HT, GIP, CCK) in enteroids; details: 14-day protocol
Experimental: Immunofluorescence staining was performed as previously described with minor modifications (Dekkers J F, Alieva M, Wellens L M, et al. Nat Protoc 2019; 14:1l756-1771)^32. Organoids were grown in and isolated from Matrigel® as noted above. 1-3 wells from a 24-well plate were washed in 200 μL of 1× phosphate-buffered saline (PBS) and moved in suspension to a 1.5 mL microcentrifuge tube. Each tube was centrifuged at 800×g for 5 minutes at 4° C. to pellet organoids. PBS was aspirated, and organoids were fixed in 200 μL of 4% paraformaldehyde (PFA) for 20 minutes on ice, shaking. Each tube was centrifuged again as above, and PFA was aspirated. The organoids were then resuspended in 500 μL of 0.3% Triton-X in PBS and moved to a 48-well plate for the remaining steps. The organoids were permeabilized for 30 minutes at room temperature, shaking. Between each step, organoids were allowed to settle to the bottom of each well, the plate was angled, and the solution aspirated by careful pipetting. Organoids were then blocked with 5% bovine serum albumin in PBS for 1.5 hours at room temperature, shaking. This was followed by three five-minute washes in 500 μL of PBS at room temperature, shaking.
Each well was then incubated in 200 μL of primary antibodies diluted in 5% BSA/0.1% Trition-X in PBS at 4° C. overnight. This was followed by five washes in 500 μL of 0.1% Triton-X in PBS for 15 minutes each at room temperature, shaking. 200 μL of secondary antibodies, including Alexa Fluor 488- or 647-conjugated anti-mouse (Invitrogen, A-21202, or A-31571, 1:400), Alexa Fluor 488-conjugated anti-rat (Invitrogen, A-21208, 1:400), Alexa Fluor 488-conjugated anti-goat (Invitrogen, A-11055, 1:400) or Alexa Fluor 647-conjugated anti-rabbit (Invitrogen, A-31573, 1:400), diluted in 0.1% Triton-X in PBS, which were then added to each well and incubated for two hours at room temperature, shaking. Organoids were then washed as above, then moved to new 1.5 mL centrifuge tubes. During the last wash, 4′,6-diamidino-2-phenylindole (DAPI, Life Technologies, D1306) was added at a concentration of 1:1000 for nuclear staining. Organoids were then centrifuged at 1000×g for 5 minutes at 4° C. to assist in removal of as much PBS as possible. Slides were prepared by drawing three circles with a hydrophobic pen (Vector Laboratories, H-4000). Enteroids were then resuspended in 20 μL of Prolong Gold Antifade mountant (Life Technologies, P36930), and droplets placed within hydrophobic circles. […]
This technique was adapted from a previously described method (Borten M A, Bajikar S S, Sasaki N, et al. Sci Rep 2018; 8:5319)^69. […] Any remaining clumped enteroids were manually separated prior to quantification. […]

human duodenal enteroids [2] = experiment: Hormone ELISA (5HT, GIP) of enteroid conditioned media; details: last two days of differentiation
Experimental: Hormone quantification for GIP (MilliporeSigma, […]), GLP-1, PYY, and serotonin (Eagle Biosciences/DLD Diagnostika GmbH, SER39-KO1) and were performed using kits and following manufacturer's protocols. For these experiments, organoids were grown in 48-well plates to aid in concentrating the hormone of interest. Conditioned media was taken on day 14 of differentiation. For GIP quantification, Diprotin A (Tocris, 6019, 100 μM), a dipeptidyl peptidase 4 inhibitor, was added daily to the media for the last two days of differentiation to prevent GIP and GLP-1 degradation. For hormone induction studies, forskolin (Fsk) (10 μM) was added to fresh media 24-hours prior to conditioned media being taken. As an additional control, differentiation media not exposed to cells was also evaluated. This value was then subtracted from each experimental sample.

human duodenal enteroids [3] = experiment: Flow cytometry of CHGA+ cells from enteroids
Experimental: Organoids were incubated in Cell Recovery solution for 40-60 minutes at 4° C. to remove the Matrigel® and then centrifuged at 500×g for 5 minutes at 4° C. To achieve single cell suspension, organoids were then incubated in 500 μL of TrypLE™ Express (Thermo Fisher Scientific) at 37° C. for 30 minutes and broken up by repeated pipetting using a bent P1000 pipette tip. Each sample was then diluted in 800 μL of 20% FBS in Advanced DMEM/F12 and then centrifuged at 800×g for 5 minutes at 4° C. To mark dead cells, each sample was then incubated in DAPI (1:1000) diluted in 2% FBS/2 mM EDTA/calcium-free DMEM for 20 minutes at room temperature, then centrifuged at 800×g for 5 minutes at 4° C. and washed in 2% FBS/2 mM EDTA/DMEM. Cells were then incubated in 1% PFA for 15 minutes at room temperature, washed with 2% FBS/PBS and then permeabilized in 0.2% Tween 20 in 2% FBS/PBS for 15 minutes at 37° C. Following centrifugation, cells were resuspended in 0.1% Tween 20/2% FBS/2 mM EDTA in PBS with PE/Alexa Fluor 647-conjugated CHGA (BD Biosciences, 564563, 1:100) or PE/Alexa Fluor 647-conjugated mouse IgG1, K isotype, (BD Biosciences, 554680, 1:200) or with no antibody (the latter two acting as controls) for 30 minutes on ice. Cells were then washed in 0.1% Tween 20/2% FBS/2 mM EDTA in PBS, filtered through a 37-micron mesh, and then analyzed on a BD FACSAria II SORP flow cytometer. […]

Structure (SMILES): CCn1cc(C(=O)O)c(=O)c2c(N)c(F)c(NC3CCCCC3)cc21 [AS, AS1842856]
- percentage of CCK-positive enteroids (human duodenal enteroids [1]): 4.5%
- percentage of GIP-positive enteroids (human duodenal enteroids [1]): 53%
- percentage of enteroids containing SST-positive cells (human duodenal enteroids [1]): 42%
- percentage of enteroids with positive 5HT staining (human duodenal enteroids [1]): 75%
- 5HT secretion (ELISA of conditioned media) (human duodenal enteroids [2]): promoted serotonin (5HT) production and secretion; also recorded: higher levels of 5HT secretion than all other conditions
- GIP secretion (ELISA of conditioned media) (human duodenal enteroids [2]): no secretion of GIP
- number of CHGA+ cells relative to the number seen with G2D12 alone (human duodenal enteroids [3]): ~50 times
